{
  "source": "patent US11834717B2",
  "about": "“Biomarkers for cancer diagnosis, prediction or staging” (Universite du Luxembourg, priority 2017, dated 2023)",
  "system": "MYO5B expression in CRC cell lines",
  "assay": "MYO5B expression in CRC cell lines after 5-aza-dC (DAC) treatment, RT-qPCR",
  "format": "cell-based",
  "settings": "colon cancer (CRC) cell lines, 5 μM for four days vs vehicle (DMSO), 2-4 independent experiments, FIG. 3A",
  "protocol": "All CRC cell lines were obtained from the American Type Culture Collection (ATCC, Rockville, USA) and maintained in recommended culture conditions. For methylation analysis, cells were treated with 5 μM 5-Aza-2′-Deoxycytidine (5-aza-dC/DAC, Sigma) or vehicle (DMSO) for four days followed by RNA extraction.\nPCR conditions were used as previously described (Letellier et al, 2014) and the expression levels of the gene of interest were normalized against the housekeeping gene HPRT (Erickson et al, 2009). For bulk tissue and CRC cell lines, the RNA was extracted with the Mirneasy kit from Qiagen and the cDNA was obtained with the mirscript II (Qiagen). PCR cycling conditions as well as quality control and normalization steps were done in qBase+ (Biogazelle), using 2 reference genes as previously described (Qureshi-Baig et al, 2016; Ullmann et a, 2016).\nOver the last years, hypermethylation of tumor suppressor genes has been reported in different cancer types (Biswas & Rao, 2017). In a similar manner, MYO5B is methylated in both gastric tumors (Dong et al, 2013) and leukemias (Kuang et al, 2008). Thus, it was analyzed whether promoter methylation could explain the observed down-regulation of MYO5B in CRC. To this end, the expression of MYO5B in CRC cell lines was investigated first after treatment with 5-Aza-2′-Deoxycytidine (5-aza-dC/DAC), a known demethylating agent.",
  "data": [
    {"smiles": "Nc1ncn([C@H]2C[C@H](O)[C@@H](CO)O2)c(=O)n1", "note": "[DAC, 5-Aza-2′-Deoxycytidine]", "values": [
      {"measurement": "change of MYO5B basal expression levels after DAC treatment", "value": "minor changes"},
      {"measurement": "change of MYO5B basal expression levels after DAC treatment", "setting": "listed as 5-aza-dC", "value": "does not increase"}
    ]}
  ]
}
